Data reported in the supplement of paper PMC10307832.

Columns and labels:
Assay in all cases: relative viability (nuclei count vs DMSO), 5 days (fraction); higher = more cells survive
XMD13-2 + Decitabine = compound: C1CC1C(=O)NC2=NNC3=C2C=CC(=C3)C4=CC(=CC=C4)C(=O)NC5CC5 [XMD13-2] + Nc1ncn([C@H]2C[C@H](O)[C@@H](CO)O2)c(=O)n1 [Decitabine] (partner 2 µM)
Summary of the method: (§1)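 One day after seeding in 1536-well plates, lung cancer cell lines were dosed by pin tool. Dosing was either single-drug or a fixed anchor-drug dose plus five library-drug doses (not always all listed) in √10 steps. After 5 days, nuclei were stained in one fix-and-stain step and counted on 4× images, and relative viability is the nuclei count of treated wells over that of vehicle wells, given as the median of duplicate plates.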

XMD13-2 + Palbociclib = compound: C1CC1C(=O)NC2=NNC3=C2C=CC(=C3)C4=CC(=CC=C4)C(=O)NC5CC5 [XMD13-2] + CC(=O)c1c(C)c2cnc(Nc3ccc(N4CCNCC4)cn3)nc2n(C2CCCC2)c1=O [Palbociclib] (partner 0.5 µM)
Summary of the method: as §1

Dasatinib + Crizotinib = compound: Cc1nc(Nc2ncc(C(=O)Nc3c(C)cccc3Cl)s2)cc(N2CCN(CCO)CC2)n1 [Dasatinib] + C[C@@H](Oc1cc(-c2cnn(C3CCNCC3)c2)cnc1N)c1c(Cl)ccc(F)c1Cl [Crizotinib] (partner 1 µM)
Summary of the method: as §1

ALW-II-49-7 + Foretinib = compound: Cc1ccc(C(=O)Nc2cccc(C(F)(F)F)c2)cc1Nc1cncc(C(N)=O)c1 [ALW-II-49-7] + COc1cc2c(Oc3ccc(NC(=O)C4(C(=O)Nc5ccc(F)cc5)CC4)cc3F)ccnc2cc1OCCCN1CCOCC1 [Foretinib] (partner 0.25 µM)
Summary of the method: as §1

Cell Line | relative viability (XMD13-2 + Decitabine; first compound 0.05 µM) | relative viability (XMD13-2 + Decitabine; first compound 0.1581 µM) | relative viability (XMD13-2 + Decitabine; first compound 0.5 µM) | relative viability (XMD13-2 + Decitabine; first compound 1.581 µM) | relative viability (XMD13-2 + Decitabine; first compound 5 µM) | relative viability (XMD13-2 + Palbociclib; first compound 0.05 µM) | relative viability (XMD13-2 + Palbociclib; first compound 0.1581 µM) | relative viability (XMD13-2 + Palbociclib; first compound 0.5 µM) | relative viability (XMD13-2 + Palbociclib; first compound 1.581 µM) | relative viability (XMD13-2 + Palbociclib; first compound 5 µM) | relative viability (Dasatinib + Crizotinib; first compound 0.005 µM) | relative viability (Dasatinib + Crizotinib; first compound 0.01581 µM) | relative viability (Dasatinib + Crizotinib; first compound 0.05 µM) | relative viability (Dasatinib + Crizotinib; first compound 0.1581 µM) | relative viability (Dasatinib + Crizotinib; first compound 0.5 µM) | relative viability (ALW-II-49-7 + Foretinib; first compound 0.253 µM) | relative viability (ALW-II-49-7 + Foretinib; first compound 0.8 µM) | relative viability (ALW-II-49-7 + Foretinib; first compound 2.53 µM) | relative viability (ALW-II-49-7 + Foretinib; first compound 8 µM) | relative viability (ALW-II-49-7 + Foretinib; first compound 0.08 µM)
LK-2 | 0.378 | 0.297 | 0.274 | 0.281 | 0.329 | 0.666 | 0.557 | 0.698 | 0.776 | 0.593 | 0.266 | 0.209 | 0.222 | 0.189 | 0.179 | 0.884 | 1.27 | 0.958 | 1.31 | 
LOU-NH91 | 0.815 | 0.844 | 0.802 | 0.837 | 0.882 | 0.541 | 0.554 | 0.561 | 0.475 | 0.507 | 0.777 | 0.658 | 0.691 | 0.498 | 0.354 | 0.945 | 0.921 | 0.879 | 0.944 | 0.912
LU99A | 0.97 | 0.881 | 0.945 | 0.857 | 0.808 | 0.402 | 0.38 | 0.391 | 0.402 | 0.27 | 0.538 | 0.458 | 0.473 | 0.274 | 0.301 | 0.936 | 0.92 | 0.867 | 0.768 | 0.82
LXF-289 | 0.38 | 0.377 | 0.402 | 0.399 | 0.379 | 0.627 | 0.64 | 0.535 | 0.634 | 0.612 | 0.849 | 0.912 | 0.857 | 0.197 | 0.136 | 1.05 | 1 | 1.07 | 1.04 | 0.98
NCI-H23 | 0.271 | 0.335 | 0.329 | 0.33 | 0.301 | 0.572 | 0.514 | 0.502 | 0.58 | 0.658 | 0.409 | 0.425 | 0.385 | 0.304 | 0.213 | 1.01 | 1.06 | 0.993 | 1.03 | 0.923
NCI-H322M | 0.73 | 0.718 | 0.791 |  | 0.742 | 0.494 | 0.491 | 0.498 |  | 0.49 | 0.953 | 0.785 | 0.753 | 0.336 | 0.155 | 0.996 | 0.908 | 0.771 | 0.962 | 0.825
NCI-H358 | 0.248 | 0.212 | 0.22 | 0.216 | 0.18 | 0.139 | 0.121 | 0.133 | 0.117 | 0.129 | 0.507 | 0.437 | 0.349 | 0.282 | 0.194 | 0.658 | 0.575 | 0.809 | 0.689 | 0.691
NCI-H441 | 0.23 | 0.248 | 0.237 | 0.231 | 0.242 | 0.239 | 0.224 | 0.219 | 0.225 | 0.28 | 0.62 | 0.626 | 0.617 | 0.309 | 0.162 | 1.01 | 1.14 | 1.22 | 0.854 | 1.02
NCI-H460 | 0.607 | 0.513 | 0.54 | 0.552 | 0.454 | 0.183 | 0.167 | 0.21 | 0.233 | 0.286 | 0.729 | 0.602 | 0.432 | 0.243 | 0.218 | 1.05 | 0.84 | 1.02 | 0.899 | 1.09
NCI-H520 | 0.531 | 0.506 | 0.534 | 0.549 | 0.442 | 0.256 | 0.239 | 0.213 | 0.203 | 0.188 | 0.656 | 0.442 | 0.419 | 0.144 | 0.138 | 0.697 | 0.971 | 0.777 | 0.555 | 0.904
NCI-H647 | 0.398 | 0.329 | 0.471 | 0.392 | 0.326 | 0.491 | 0.384 | 0.408 | 0.5 | 0.225 | 0.734 | 0.526 | 0.285 | 0.149 | 0.133 | 1.32 | 1.23 | 1.09 | 1.06 | 1.36
NCI-H650 | 0.311 | 0.315 | 0.329 | 0.296 | 0.306 | 0.321 | 0.335 | 0.33 | 0.305 | 0.31 | 0.741 | 0.61 | 0.632 | 0.444 | 0.3 | 1.06 | 1.01 | 0.92 | 0.638 | 1.16
NCI-H661 | 0.611 | 0.56 | 0.56 | 0.537 | 0.461 | 0.378 | 0.395 | 0.392 | 0.406 | 0.408 | 1.08 | 1.19 | 0.972 | 0.8 | 0.547 | 1.08 | 0.954 | 1.01 | 0.884 | 1.17
NCI-H727 | 1.02 | 0.783 | 0.914 | 0.841 | 1 | 0.677 | 0.691 | 0.758 | 0.601 | 0.627 | 0.707 | 0.548 | 0.491 | 0.241 | 0.223 | 0.832 | 1.1 | 0.912 | 1.08 | 1.17
NCI-H838 | 0.386 | 0.414 | 0.477 | 0.436 | 0.387 | 0.238 | 0.214 | 0.249 | 0.224 | 0.205 | 0.571 | 0.577 | 0.306 | 0.23 | 0.202 | 1.12 | 1.04 | 1.12 | 1.24 | 0.988
